One test deals with Micrococcus luteus. Description: Antimicrobial activity against Micrococcus luteus. The class given is functional.
The subject of a further test is Neurospora crassa. Description: Antimicrobial activity against Neurospora crassa. Format: functional.

Values after ≈ are worked out from the molar mass of the structure shown.

As a reminder, the MIC is the smallest concentration in the dilution series that meets the test's criterion for growth inhibition. A high value points to weaker potency. In the case of `C[C@@H]1C[C@H](O)/C=C/[C@@H](O)/C=C\C(=O)O1` [MODIOLIDE A], the MIC against Micrococcus luteus stood at 16.7 µg/mL (≈ 84.3 µM); against Neurospora crassa it was 33.3 µg/mL (≈ 168 µM).
As for `C[C@@H]1CC/C=C/[C@@H](O)/C=C\C(=O)O1` [MODIOLIDE B], the MIC in the test on Micrococcus luteus was determined as 16.7 µg/mL (≈ 91.6 µM); against Neurospora crassa, 33.3 µg/mL (≈ 183 µM).

These data come from ChEMBL document CHEMBL1150682, “Modiolides A and B, two new 10-membered macrolides from a marine-derived fungus” (2003).
